45 molecules from patent US20090306373A1, “4,7-DIHYDROTHIENO[2,3-B]PYRIDINE COMPOUNDS AND PHARMACEUTICAL COMPOSITIONS” (priority 2005, published 2009) can be followed below.

The subject of the experiment is alpha-MyHC. The experiment is described as follows: alpha-MyHC cytoblot in neonatal rat ventricular myocytes (NRVM). In kind it is cell-based. As to conditions: Table 1, 72 hours, fitted maximum, percent fraction of low control (vehicle), in %. On the procedure: In vitro activity of each compound is measured using the alpha-MyHC cytoblot process. Briefly, neonatal rat ventricular myocytes (NRVM) at 120,000 cells/ml in HyQ DME/High modified culture media supplemented with 10% charcoal/dextran treated FBS, 0.1% Nutridoma-SP, 1:100 MEM non-essential amino acids, 1:50 MEM amino acids solution w/o L-Gln, 1 mM sodium pyruvate and 1:100 P/S/G, are plated on gelatin coated sterile 384-well plates (Costar 3712) at 6,000 cells per well. Cells are incubated overnight at 37° C. in 5% CO2 100% humidity. Following overnight growth the media is changed to HyQ DME/High modified culture media supplemented with 0.3% Nutridoma-SP, 1:100 MEM non-essential amino acids, 1:50 MEM amino acids solution w/o L-Gln, 1 mM sodium pyruvate and 1:100 P/S/G. Cells are then dosed with serial dilutions of each compound in DMSO. Each concentration in the dose range is dosed in quadruplicate. Dosing is done in such a way so that the final DMSO concentration was 0.44%. Compound dilutions are 3-fold with the final top concentration of 10 uM. […] Following dosing, the cells are incubated for 72 hours at 37° C. in 5% CO2 100% humidity and then processed with the cytoblot method. Briefly, cell media is aspirated and cell monolayers washed with PBS and fixed with 100% methanol for 30 minutes. Fixed cells are then blocked with PBS, 0.05% Tween-20, 1% BSA, for 1 hour. Following blocking, cells are incubated with primary alpha-MyHC-specific antibody (1:30 dilution of BA-G5 hybridoma conditioned media, ATCC HB276) for 1 hour. Following incubation with the primary antibody, cells are washed with PBS, 0.05% Tween-20, 1% BSA and incubated with secondary antibody (1:1000 dilution, goat-anti-mouse HRP, Southern Biotech, 1031-05) for 1 hour. Following incubation with the secondary antibody, wells are washed and incubated in SuperSignal, West Dura HRP-luminescence substrate for 30 seconds under shaking at room temperature. Luminescence is measured using a Packard Fusion plate reader. […] RLU values are converted into percent fraction of low control and dose responses are fitted to a sigmoidal 4-parameter equation (XLFit, IDBS) where the EC50 and Max Plateau values were extracted. […] Max Plateau is the […] maximum value determined by the dose response fit.
Consider `CC(=O)C1=C(C)Nc2sc(C(=O)c3ccc(Cl)c(Cl)c3)c(N)c2C1c1ccc(Cl)cc1Cl` (stereo not drawn) [Compound 52], for which the “Max Plateau” value turned out to be 122.73 ± 20.55.

On to `CCC(=O)C1=C(CC)Nc2sc(C(=O)c3ccc(Cl)c(Cl)c3)c(N)c2C1c1ccccc1Cl` (stereo not drawn) [Compound 53], for which the “Max Plateau” value amounted to 259.43 ± 26.30.

Turning to `CCC(=O)C1=C(CC)Nc2sc(C(=O)c3ccc(Cl)c(Cl)c3)c(N)c2C1c1cccc(Cl)c1` (stereo not drawn) [Compound 54], the “Max Plateau” value is given as 267.44 ± 32.29. In the case of `CC(=O)C1=C(C)Nc2sc(C(=O)c3ccc(Cl)c(Cl)c3)c(N)c2C1c1cc(F)cc(F)c1` (stereo not drawn) [Compound 55] it was 229.93 ± 37.33.

For the molecule `CCC(=O)C1=C(CC)Nc2sc(C(=O)c3ccc(Cl)c(Cl)c3)c(N)c2C1c1ccccc1C` (stereo not drawn) [Compound 56], the “Max Plateau” value turned out to be 293.74 ± 50.82. In the case of `CC(=O)C1=C(C)Nc2sc(C(=O)c3ccccc3Cl)c(N)c2C1c1ccccc1` (stereo not drawn) [Compound 57] it was 246.00 ± 16.33. Consider `CCC(=O)C1=C(CC)Nc2sc(C(=O)c3ccc(Cl)c(Cl)c3)c(N)c2C1c1cccc([N+](=O)[O-])c1` (stereo not drawn) [Compound 58], for which the “Max Plateau” value is 232.20 ± 56.57. With `CCC(=O)C1=C(CC)Nc2sc(C(=O)c3ccc(Cl)c(Cl)c3)c(N)c2C1c1ccccc1[N+](=O)[O-]` (stereo not drawn) [Compound 59] the figure was 152.77 ± 11.42; with `CCC(=O)C1=C(CC)Nc2sc(C(=O)c3ccc(Cl)c(Cl)c3)c(N)c2C1c1ccccc1C(F)(F)F` (stereo not drawn) [Compound 60], 100.00 ± 0.00; with `CC(=O)C1=C(C)Nc2sc(C(=O)c3cccc(F)c3)c(N)c2C1c1ccccc1` (stereo not drawn) [Compound 61], 230.65 ± 55.61.

For the molecule `COC(=O)c1cccc(C(=O)c2sc3c(c2N)C(c2ccccc2)C(C(C)=O)=C(C)N3)c1` (stereo not drawn) [Compound 62], the “Max Plateau” value came to 279.31 ± 67.94. `CCC(=O)C1=C(CC)Nc2sc(C(=O)c3ccc(Cl)c(Cl)c3)c(N)c2C1c1c(F)cccc1F` (stereo not drawn) [Compound 63]: the “Max Plateau” value is recorded as 230.07 ± 45.59. With `CCC(=O)C1=C(CC)Nc2sc(C(=O)c3cc(Cl)ccc3Cl)c(N)c2C1c1ccccc1` (stereo not drawn) [Compound 64] the figure was 281.39 ± 54.54. In the case of `CC(=O)C1=C(C)Nc2sc(C(=O)c3cccc(C(=O)O)c3)c(N)c2C1c1ccccc1` (stereo not drawn) [Compound 65] it was 100.00 ± 0.00.

On to `CCC(=O)C1=C(CC)Nc2sc(C(=O)c3cccc(Cl)c3)c(N)c2C1c1ccccc1` (stereo not drawn) [Compound 66], for which the “Max Plateau” value is recorded as 306.19 ± 54.21. With `CCC(=O)C1=C(CC)Nc2sc(C(=O)c3ccccc3F)c(N)c2C1c1ccccc1` (stereo not drawn) [Compound 67] the figure was 256.12 ± 53.66; with `CCC(=O)C1=C(CC)Nc2sc(C(=O)c3ccccc3)c(N)c2C1c1cccnc1` (stereo not drawn) [Compound 68], 175.88 ± 14.54; with `CCC(=O)C1=C(CC)Nc2sc(C(=O)c3ccccc3)c(N)c2C1c1c(F)cccc1F` (stereo not drawn) [Compound 69], 221.36 ± 15.94. With `CCC(=O)C1=C(CC)Nc2sc(C(=O)c3ccc(Cl)cc3Cl)c(N)c2C1c1ccccc1` (stereo not drawn) [Compound 70] the figure was 191.97 ± 13.09; with `CCC(=O)C1=C(CC)Nc2sc(C(=O)c3ccc(F)c(F)c3)c(N)c2C1c1ccccc1` (stereo not drawn) [Compound 72], 223.99 ± 24.51.

Regarding `CCC(=O)C1=C(CC)Nc2sc(C(=O)c3cc(C(F)(F)F)cc(C(F)(F)F)c3)c(N)c2C1c1ccccc1` (stereo not drawn) [Compound 73], the “Max Plateau” value turned out to be 205.27 ± 38.78. With `CCC(=O)C1=C(CC)Nc2sc(C(=O)c3cccc(C(=O)OC)c3)c(N)c2C1c1ccccc1` (stereo not drawn) [Compound 74] the figure was 262.81 ± 32.38. In the case of `CCC(=O)C1=C(CC)Nc2sc(C(=O)c3ccc(Cl)c(Cl)c3)c(N)c2C1c1cccnc1` (stereo not drawn) [Compound 75] it was 226.71 ± 40.80; in that of `CCC(=O)C1=C(CC)Nc2sc(C(=O)c3cc(F)cc(F)c3)c(N)c2C1c1ccccc1` (stereo not drawn) [Compound 76], 230.70 ± 23.22; in that of `CCC(=O)C1=C(CC)Nc2sc(C(=O)c3cccc(C(=O)O)c3)c(N)c2C1c1ccccc1` (stereo not drawn) [Compound 77], 220.00 ± 10.00. As for `CCC(=O)C1=C(CC)Nc2sc(C(=O)c3ccccc3)c(N)c2C1c1ccccc1F` (stereo not drawn) [Compound 78], the “Max Plateau” value came to 269.77 ± 35.30. In the case of `CCC(=O)C1=C(CC)Nc2sc(C(=O)c3ccc(F)cc3)c(N)c2C1c1ccccc1` (stereo not drawn) [Compound 79] it was 241.90 ± 15.79; in that of `CCC(=O)C1=C(CC)Nc2sc(C(=O)c3ccc(Cl)cc3)c(N)c2C1c1ccccc1` (stereo not drawn) [Compound 80], 226.13 ± 5.25. With `CCC(=O)C1=C(CC)Nc2sc(C(=O)c3ccc(Cl)c(Cl)c3)c(N)c2C1c1ccc(OC)cc1F` (stereo not drawn) [Compound 81], the “Max Plateau” value is on record as 184.00 ± 15.51.

Regarding `CCC(=O)C1=C(CC)Nc2sc(C(=O)c3ccccc3Cl)c(N)c2C1c1ccccc1` (stereo not drawn) [Compound 82], the “Max Plateau” value was 245.96 ± 30.73. In the case of `CCC(=O)C1=C(CC)Nc2sc(C(=O)c3ccc(Cl)c(Cl)c3)c(N)c2C1c1ccc(O)cc1Cl` (stereo not drawn) [Compound 83] it was 274.88 ± 44.56; in that of `CCC(=O)C1=C(CC)Nc2sc(C(=O)c3ccc(Cl)c(Cl)c3)c(N)c2C1c1cccc(F)c1` (stereo not drawn) [Compound 84], 242.72 ± 19.34.

As for `CCC(=O)C1=C(CC)Nc2sc(C(=O)c3ccc(Cl)c(Cl)c3)c(N)c2C1c1cccc2ccccc12` (stereo not drawn) [Compound 85], the “Max Plateau” value amounted to 105.90 ± 6.18. For the molecule `CCCC(=O)C1=C(CCC)Nc2sc(C(=O)c3ccc(Cl)c(Cl)c3)c(N)c2C1c1ccccc1` (stereo not drawn) [Compound 86], the “Max Plateau” value turned out to be 131.26 ± 2.34. In the case of `CCCC(=O)C1=C(CCC)Nc2sc(C(=O)c3ccc(Cl)c(Cl)c3)c(N)c2C1c1ccccc1F` (stereo not drawn) [Compound 87] it was 187.66 ± 12.24; in that of `CCC(=O)C1=C(CC)Nc2sc(C(=O)c3ccc(Cl)c(Cl)c3)c(N)c2C1c1ccc2ccccc2c1` (stereo not drawn) [Compound 88], 113.45 ± 11.92; in that of `CCC(=O)C1=C(CC)Nc2sc(C(=O)c3ccc(Cl)c(C)c3)c(N)c2C1c1ccccc1` (stereo not drawn) [Compound 89], 230.09 ± 19.81. With `CCC(=O)C1=C(CC)Nc2sc(C(=O)c3cc(C(C)(C)C)c(O)c(C(C)(C)C)c3)c(N)c2C1c1ccccc1` (stereo not drawn) [Compound 90] the figure was 300.00 ± 0.00; with `CCCC(=O)C1=C(CCC)Nc2sc(C(=O)c3ccc(Cl)cc3Cl)c(N)c2C1c1ccccc1F` (stereo not drawn) [Compound 91], 143.39 ± 20.69; with `CCCC(=O)C1=C(CCC)Nc2sc(C(=O)c3cc(Cl)ccc3Cl)c(N)c2C1c1ccccc1F` (stereo not drawn) [Compound 92], 189.00 ± 25.40. `CCCC(=O)C1=C(CCC)Nc2sc(C(=O)c3cc(Cl)ccc3Cl)c(N)c2C1c1ccccc1` (stereo not drawn) [Compound 94]: the “Max Plateau” value was 153.83 ± 13.14. With `CCCC(=O)C1=C(CCC)Nc2sc(C(=O)c3ccc(F)c(F)c3)c(N)c2C1c1ccccc1` (stereo not drawn) [Compound 95] the figure was 147.01 ± 6.43; with `CCC(=O)C1=C(CC)Nc2sc(C(=O)c3cccc([N+](=O)[O-])c3)c(N)c2C1c1ccccc1` (stereo not drawn) [Compound 96], 254.87 ± 72.67; with `CCC(=O)C1=C(CC)Nc2sc(C(=O)c3cccc([N+](=O)[O-])c3)c(N)c2C1c1ccccc1F` (stereo not drawn) [Compound 97], 247.24 ± 38.88. With `CCC(=O)C1=C(CC)Nc2sc(C(=O)c3ccc(Cl)c(Cl)c3)c(N)c2C1c1ccnc(F)c1` (stereo not drawn) [Compound 98] the figure was 255.02 ± 32.01.
